In assay [1] the target is DNA gyrase (Escherichia coli). Kind of assay: Inhibition effect on Escherichia coli Wild Type DNA gyrase Supercoiling activity.
In assay [2] the target is DNA gyrase (Escherichia coli). Kind of assay: Inhibition of Escherichia coli Quinolone resistant gyrase Supercoiling activity.

With `N[C@H]1CCCN(c2c(F)cc3c(=O)c(C(=O)O)cn(C4CC4)c3c2F)C1`, the half-maximal inhibitory concentration (IC50) is 8.8 µM in assay [1] and 71.5 µM in assay [2].

Usually IC50 stands for the concentration that gives 50% inhibition.

For the origin of these results see BindingDB's records for doi:10.1021/jm030272n (Procter & Gamble Pharmaceuticals, 2003).
